Experiment [1] has as its system transgenic blood vessel fluorescent zebrafish. The experiment in a line: In vivo anti-angiogenesis in zebrafish (SIVs area). Conditions: 500 ng/tail, 24 h. The arrangement: area of SIVs: unit not given here.
Experiment [2] relates to human macrophage U937. The experiment in a line: TNF-α production by LPS-induced human macrophage U937 (ELISA). The experiment is classed as cell-based. Conditions: LPS 1 μg/mL, 48 h, negative group 77.6±19.6. The protocol:
Experimental method: Human macrophage U937 was cultured in RPMI-1640 medium containing 10% fetal bovine serum and double antibodies in a constant temperature incubator at 37° C. under the condition of 5% CO2, and the medium was replaced every 2 days. U937 cells in the logarithmic phase were collected, resuspended and adjusted to the concentration of 5×10^5/mL. 100 μL of cells was added to each well of a 96-well plate overnight and induced with LPS (1 μg/mL) in the following day, where n=3. At the same time, the cells were treated with agents, and respectively divided into a positive control group adalimumab, an HM-3 polypeptide group, an mPEG-SC-HM-3 polypeptide group, an HM-3 fusion protein (TSL-1, TSL-2, TSL-3, TSL-4) group, and the specific dosing scheme was shown in Table 5.
48 h after the agents worked, culture medium was collected and centrifuged, and supernatant was taken to measure the content of TNF-α therein by ELISA. Test results were expressed as mean±SD, and statistical T test was performed. *P<0.05 indicates significant difference, **P<0.01 indicates extremely significant difference. Based upon the results, the efficacy of the HM-3 fusion protein against rheumatoid arthritis was screened.
Background: ELISA stands for enzyme-linked immunosorbent assay.

Experiment [3] deals with transgenic blood vessel fluorescent zebrafish. Nature of the experiment: In vivo anti-angiogenesis in zebrafish (SIVs area). Conditions: for inhibiting effect on angiogenesis: 20 ng/tail; for inhibition rate of angiogenesis / area of SIVs: 24 h; for area of SIVs: normal control group 53193. Details: area of SIVs: unit not given here. The protocol: Experimental method: transgenic blood vessel fluorescent zebrafish was randomly selected and put into a six-well plate with 30 fish per well, and intravenously injected HM-3 polypeptide, TSL-1 fusion protein, TSL-2 fusion protein, TSL-3 fusion protein and TSL-4 fusion protein respectively in accordance with the dosage of 20 ng/tail and 66 ng/tail; the dosage was […] in Avastin positive control and the injection volume was 20 nL/tail; the zebrafish injected 20 nL/tail of buffer solution served as a solvent control group, and the zebrafish without any treatment served as a normal control group. 10 pieces of zebrafish were randomly selected from each group after processed for 24 h to observe the intestinal vessels of the transgenic zebrafish by a fluorescence microscope, as well as to take and maintain images. Image analysis was performed by Nikon MS-Elements D 3.10 to calculate the area (S) of SIVs (subintestinal vessel, SIV). The calculation formula of angiogenesis inhibition rate was as follows: Angiogenesis inhibition rate (%)=(1−S(Test sample group)/S(Normal control group))×100%
Statistical analysis was performed by variance analysis and Dunnett's T-test and the results were expressed as Mean±SD, where p<0.05 indicates a significant difference.

Experiment [4] deals with type-II CIA mice. The experiment in a line: Chronic inflammation model of type-II CIA in mice. The experiment is classed as in vivo, Balb/c mice. The protocol: Experimental method: Balb/c mice were taken and immunized for the first time. The concentration of type-II bovine collagen was 4 mg/mL. On the day of the experiment (day 0), complete Freund's adjuvant (CFA) and CII solution were mixed evenly in equal volume and emulsified. Excepting for the normal control group of Balb/c mice, mice in each group were sensitized by intracutaneous injection of 50 μL emulsifier at the end of tails. 21 days later, mice were re-immunized with the same dose of emulsifier at the end of tails, and incomplete Freund's adjuvant (IFA) served as an adjuvant at this time. Redness and swelling other arthritic symptoms appeared on toe joints of mice models approximately on the 29th day of the experiment, indicating successful modeling.
Animals in the modeling group on the 30th day of the experiment were randomly divided into:
There were 12 groups in total, and there were 8 pieces of mice in remaining each group excepting for 12 pieces in G1 (normal control group) and G2 (model group).
Measurement of mice weight: mice were weighed by an electronic balance every two days.
Measurement of sole thickness: the thickness of left, right and hind soles for each mouse was measured by a vernier caliper every two days.
Measurement of ankle joint width: the width of left and right ankle joints for each mouse was measured by vernier caliper every two days.
Arthritis index (AI) score: the severity of arthritis for each mouse was evaluated by a paw joint scoring method. 0: no redness and swelling; 1: redness and swelling of little toe joints; 2: redness and swelling of toe joints and toes; 3: redness and swelling of the portion below ankle joints; 4: redness and swelling of toe joints, toes and ankle joints. Scoring was performed once every two days until the end of the experiment.
Blood was collected from the orbit and serum was separated. After mice were killed by cervical dislocation, spleen and thymus were separated and weighed to calculate a spleen coefficient, and then the spleen and thymus were fixed in formalin stationary liquid.

In experiment [5] the test system is mice splenic lymphocyte proliferation stimulated by ConA. The experiment is classed as cell-based. The protocol:
Experimental method: mice orbit was by bloodletting to death, and immediately immersed in 75% ethanol for 5-10 min, and then the spleen was removed on a clean bench and placed in PBS. The spleen was placed on a sterile cell strainer (200 mesh) and ground with a syringe nozzle; during grinding process, PBS was added continuously; the slurry was collected and centrifuged (1000 rpm for 5 min), then cells were washed 3 times with Tris-ammonium chloride solution, and washed again with a medium, and then re-suspended in the medium. Finally, trypan blue living cell staining was performed on the cells, and the survival rate was more than 95%. The concentration of viable cells was adjusted to 2×10^6/mL. […] was added to each well of a 96-well plate, meanwhile, ConA (concanavalin to simulate splenocyte proliferation) and drugs were added to each well. Six duplicates were set in each group.
The 96-well plate was incubated for 48 h in a 5% CO2 incubator at 37° C. 5 mg/mL of MTT was added to the 96-well plate, 20 μL for each well, and then it was incubated continuously for 4 h in the incubator. The culture medium in the 96-well plate was discarded and 100 μL DMSO was added to each well and mixed gently. Absorbance was measured by a microplate reader at the wavelength of 570 nm and reference wavelength of 630 nm.
Proliferation inhibition rate (PI) was calculated according to formula:
[formula] wherein, Atest is the absorbance of dosing group, and Acontrol is the absorbance of negative control. Test results were expressed as mean±SD, and statistical T test was performed. *P<0.05 indicates significant difference, **P<0.01 indicates extremely significant difference. Based upon the results, the efficacy of the fusion protein against rheumatoid arthritis was screened.
In the P4 control group, TSL-4 fusion protein served as a control agent.

The results in this text go back to patent US11655308B2, “HM-3 fusion protein and application thereof” (TASLY BIOPHARMACEUTICALS CO., LTD., priority 2017, dated 2023).

No end group written: not given here.

Regarding “Avastin: positive control in the zebrafish angiogenesis test”, the “inhibition rate of angiogenesis” value in experiment [1] worked out at 29%. In addition, the “area of SIVs” value in experiment [1] (normal control group 53193) is given as 37853.

Take “IVRRADRAAVPGGGGRGD [HM-3, Ile-Val-Arg-Arg-Ala-Asp-Arg-Ala-Ala-Val-Pro-Gly-Gly-Gly-Gly-Arg-Gly-Asp]”: the results for the “TNF-α content in cell supernatant” value in experiment [2] (high-dosage (Table 5: 18 μmol/L)) and in experiment [2] (low-dosage (Table 5: 9 μmol/L)) were 58.9 ± 10.6 pg/mL and 83.9 ± 20.4 pg/mL, respectively. Also, in experiment [3], the “inhibiting effect on angiogenesis” value is given as “no inhibiting effect”. Moreover, the results for the “inhibition rate of angiogenesis” value in experiment [3] (20 ng/tail iv) and in experiment [3] (66 ng/tail iv) were 2% and 20%, respectively. Also, the “area of SIVs” value in experiment [3] (20 ng/tail iv) was determined as 52186; in experiment [3] (66 ng/tail iv) it was 42492. For the same molecule, in experiment [4] (G4 HM-3 1.6 mg/kg IV 2 times/d, 30 times, day 60, model G2 4.83±0.20), the ankle width is 4.21±0.15 mm. Further, the arthritis scoring in experiment [4] (G4 HM-3 1.6 mg/kg IV 2 times/d, 30 times, day 60, model G2 11.5±1.7) is given as 7.8±1.4. In experiment [4] (G4 HM-3 1.6 mg/kg IV 2 times/d, 30 times, day 60, model G2 13.62), this molecule displayed a paw circumference of 11.41±0.53 mm. The weight of mice in experiment [4] (G4 HM-3 1.6 mg/kg IV 2 times/d, 30 times, day 60, model G2 19.5±1.6) came out at 20.9 ± 1.5 g. Further, in experiment [4] (G4 HM-3 1.6 mg/kg IV 2 times/d, 30 times, day 60, model G2 114.6±14.5), the spleen weight was found to be 94.2 ± 13.3 mg. In addition, the “therapeutic effect compared with group G3 (positive Adalimumab group)” value in experiment [4] (groups G4 (HM-3), G10 (TSL-4 12.5 mg/kg once for 5 days, 3 times)) is on record as “slightly lower than that of the group G3”.

B1: IgG2-Fc-(GGGGS)3-HM-3 (protein)
chain: VECPPCPAPPVAGPSVFLFPPKPKDTLMISRTPEVTCVVVDVSHEDPEVQFNWYVDGVEVHNAKTKPREEQFNSTFRVVSVLTVVHQDWLNGKEYKCKVSNKGLPAPIEKTISKTKGQPREPQVYTLPPSREEMTKNQVSLTCLVKGFYPSDISVEWESNGQPENNYKTTPPMLDSDGSFFLYSKLTVDKSRWQQGNVFSCSVMHEALHNHYTQKSLSLSPGKGGGGSGGGGSGGGGSIVRRADRAAVPGGGGRGD
In the case of B1, in experiment [5] (ConA 5 μg/mL, 48 h, MTT, best of the tested concentrations), the “optimal (best) inhibition rate of splenic lymphocyte proliferation” value is given as 61.4%. Moreover, the “inhibition rate compared with the positive control group” value in experiment [5] (positive group Dexamethasone 50 μmol/L) is on record as “higher than that of the positive control group”. Besides, the “TNF-α content in cell supernatant” value in experiment [2] (9 μM) turned out to be 38.6 ± 12.9 pg/mL. Besides, the “inhibiting effect on angiogenesis” value in experiment [3] is reported as “significant inhibitory effect”. The “inhibition rate of angiogenesis” value in experiment [3] (20 ng/tail iv) is 23%; in experiment [3] (66 ng/tail iv), 27%. Moreover, the “area of SIVs” value in experiment [3] (20 ng/tail iv) is recorded as 40705; in experiment [3] (66 ng/tail iv) it was 38660.
